Test results published in patent US5627206A, “Tricyclic inhibitor of matrix metalloproteinases” (Warner-Lambert Company, priority 1995, dated 1997).
Where two headings read alike, the source gives them in different places.

What was measured:
[1] = target: T1, GCD (recombinant gelatinase A catalytic domain) (Homo sapiens, UniProt P08253); test: Inhibition of GCD (recombinant gelatinase A catalytic domain), thiopeptolide substrate; assay type: biochemical; settings: thiopeptolide substrate Ac-Pro-Leu-Gly-thioester-Leu-Leu-Gly-OEt
T1 construct: propeptide, C-terminal domain and fibronectin-like insert removed; E. coli host likely
T1 sequence (P08253 110-660): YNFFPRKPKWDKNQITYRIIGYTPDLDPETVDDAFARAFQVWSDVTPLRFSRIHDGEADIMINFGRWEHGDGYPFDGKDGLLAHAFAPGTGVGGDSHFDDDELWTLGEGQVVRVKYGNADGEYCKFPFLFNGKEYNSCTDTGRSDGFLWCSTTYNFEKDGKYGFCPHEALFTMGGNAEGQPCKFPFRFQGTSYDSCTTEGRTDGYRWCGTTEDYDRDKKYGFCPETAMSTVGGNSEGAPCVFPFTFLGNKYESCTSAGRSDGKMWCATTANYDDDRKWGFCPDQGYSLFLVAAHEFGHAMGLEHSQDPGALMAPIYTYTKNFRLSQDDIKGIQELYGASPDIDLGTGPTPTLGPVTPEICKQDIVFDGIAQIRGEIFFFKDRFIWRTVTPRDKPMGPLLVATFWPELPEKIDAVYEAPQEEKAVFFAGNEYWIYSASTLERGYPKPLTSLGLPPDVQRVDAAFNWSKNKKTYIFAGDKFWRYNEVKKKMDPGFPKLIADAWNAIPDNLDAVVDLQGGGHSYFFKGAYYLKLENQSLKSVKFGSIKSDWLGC
Excerpt: Matrix metalloproteinases share high sequence homology and the catalytic domains of each of the MMPs can be identified by sequence alignment. The gene for the catalytic domain of stromelysin-1, SCD, was constructed by removing the propeptide and C-terminal domain (Ye Q.-Z., Johnson L.L, Hupe D.J., and Baragi V., "Purification and Characterization of the Human Stromelysin Catalytic Domain Expressed in Escherichia coli", Biochemistry,1992;31:11231-11235). The gelatinase A catalytic domain, GCD, was similarly constructed with the additional removal of the fibronectin-like insert which interrupts the catalytic domain (Ye Q.-Z., Johnson L.L, Yu A.E., and Hupe D., "Reconstructed 19 kDa Catalytic Domain of Gelatinase A is an Active Proteinase", Biochemistry, 1995;34:4702-4708). Both truncated proteins cleave synthetic peptide substrates and the natural substrates proteoglycan and gelatin in a manner similar to the full-length enzymes and can be used to identify matrix metalloproteinase inhibitors.
Experiments were carried out with both the full-length enzymes and the catalytic domains. […] IC50 values were determined using a thiopeptolide substrate, Ac-Pro-Leu-Gly-thioester-Leu-Leu-Gly-OEt (Ye Q.-Z., Johnson L.L., Hupe D.J., and Baragi V., "Purification and Characterization of the Human Stromelysin Catalytic Domain Expressed in Escherichia coli", Biochemistry,1992;31:11231-11235). […]

[2] = target: T2, collagenase (full-length native enzyme) (Homo sapiens, UniProt P03956); test: Inhibition of collagenase (full-length native enzyme), thiopeptolide substrate; assay type: biochemical
T2 construct: collagenase (full-length native enzyme)
T2 sequence (P03956 100-469): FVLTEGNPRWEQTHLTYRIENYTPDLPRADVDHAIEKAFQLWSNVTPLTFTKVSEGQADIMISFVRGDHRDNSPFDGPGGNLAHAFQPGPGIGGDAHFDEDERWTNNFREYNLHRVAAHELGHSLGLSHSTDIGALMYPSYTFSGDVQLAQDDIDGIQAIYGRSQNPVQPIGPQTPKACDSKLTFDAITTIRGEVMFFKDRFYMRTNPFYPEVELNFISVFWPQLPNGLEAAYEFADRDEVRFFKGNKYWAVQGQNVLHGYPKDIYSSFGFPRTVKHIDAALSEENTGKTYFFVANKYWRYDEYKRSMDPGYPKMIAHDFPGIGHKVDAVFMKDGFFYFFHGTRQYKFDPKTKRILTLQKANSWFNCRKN
Procedure: Experiments were carried out with both the full-length enzymes and the catalytic domains. […] IC50 values were determined using a thiopeptolide substrate, Ac-Pro-Leu-Gly-thioester-Leu-Leu-Gly-OEt (Ye Q.-Z., Johnson L.L., Hupe D.J., and Baragi V., "Purification and Characterization of the Human Stromelysin Catalytic Domain Expressed in Escherichia coli", Biochemistry,1992;31:11231-11235). […] IC50 values for gelatinase B, and collagenase, were >100 μM.

EAE Rats [3] = test: EAE Lewis rat acute model, Protocol 1 (daily oral dosing Day 0-14); assay type: in vivo
Procedure: (§1) Female Lewis rats were purchased from Harlan Sprague-Dawley (Indianapolis, IN) and were used at 8 to 10 weeks of age. Active EAE was induced by injection of 0.05 mL emulsion of myelin basic protein (MBP) with complete Freund's adjuvant (CFA), containing 25 μg guinea pig MBP and 100 μg Mycobacterium butyricum (Difco Laboratories, Detroit, MI) into one hind footpad. Immunized rats were observed daily for clinical signs of EAE and scored as follows: 0, no symptoms; 1, loss of tail tonicity; 2, paresis; 3, hind limb paralysis, often accompanied by incontinence; and 4, death. Formalin-fixed brain slice sections were stained with hematoxylin-eosin and evaluated microscopically for perivascular and parenchymal infiltration. Compound was administered by gavage as a solution in sterile saline in a volume of 500 μL. […] Several different protocols were used to define the efficacy and timing requirements for potency.
Protocol 1: Compound was administered daily at 50 mg/kg beginning on Day 0 and continuing through Day 14, with MBP in CFA administered on Day 0 also. […] N=5 for all groups.

EAE Rats [4] = test: EAE Lewis rat acute model, Protocol 2 (alternate-day oral dosing Day 0-14); assay type: in vivo; settings: for Effect on EAE Rats (≥Paresis/Total): CFA + MBP control 5/7
Procedure: as §1
Controls run in parallel included CFA only and MBP in CFA. N=4 for treatment groups. N=8 for controls.

[5] = system: leukocyte migration across the blood-brain barrier; test: Histology of brain slices from Protocol 1 EAE animals; assay type: in vivo, Lewis rat; settings: 50 mg/kg daily dosing schedule
Procedure: The activity of Example 2 in suppressing the inflammatory disease associated with EAE was tested using the Lewis rat acute model. Female Lewis rats were purchased from Harlan Sprague-Dawley (Indianapolis, IN) and were used at 8 to 10 weeks of age. Active EAE was induced by injection of 0.05 mL emulsion of myelin basic protein (MBP) with complete Freund's adjuvant (CFA), containing 25 μg guinea pig MBP and 100 μg Mycobacterium butyricum (Difco Laboratories, Detroit, MI) into one hind footpad. Immunized rats were observed daily for clinical signs of EAE and scored as follows: 0, no symptoms; 1, loss of tail tonicity; 2, paresis; 3, hind limb paralysis, often accompanied by incontinence; and 4, death. Formalin-fixed brain slice sections were stained with hematoxylin-eosin and evaluated microscopically for perivascular and parenchymal infiltration. Compound was administered by gavage as a solution in sterile saline in a volume of 500 μL. The dose of 50 mg/kg typically required 7.5 mg of compound per rat. Several different protocols were used to define the efficacy and timing requirements for potency.

[6] = system: Mycobacterium footpad edema; test: Mycobacterium footpad edema assay (MFE); assay type: in vivo, Wistar rats; settings: all values of Table IV (2, 10, 50 mg/kg)
Procedure: (§2) The activity of Example 2 as a general inhibitor of inflammation was tested using the Mycobacterium footpad edema assay (MFE) in Wistar rats. Compound was administered daily by gavage at 2 mg/kg, 10 mg/kg, or 50 mg/kg.
Male outbred Wistar rats (110-125 g, Charles River Labs, Portage, Mich.) were used in this study. Rats were housed for a minimum of 1 week before use. Food and water were supplied ad libitum. Foot pad edema was induced following the method described by Martel R.R. and Klicius J., "Comparisons in rats of the antiinflammatory and gastric irritant effects of etodolac with several clinically effective antiinflammatory drugs", Agents and Actions, 1982;12:295. […] Swelling was assessed on the third day by subtracting the initial volume (determined immediately following the Mycobacterium injection) from the final volume of the treated paw. Paw volume was determined by mercury plethysmography. The percent inhibition of edema achieved in each compound-treated group was determined by comparison with swelling in the vehicle-treated group and the ID50 values were determined by regression analysis. Statistical significance between experimental groups was evaluated using a Student's t-test.

[7] = Plasma concentrations after oral dosing; assay type: in vivo, Wistar rats; settings: for Cmax: read-out: plasma concentration (Cmax)
Procedure: as §2, with “mg/kg. […] The bioavailability of this compound is therefore well in excess of the effective range of gelatinase A inhibition determined in the in vitro assays.” for “mg/kg.”

[8] = system: experimental allergic encephalomyelitis (EAE); settings: Gijbels et al.; dose dependent; cited from earlier work

SMILES | IC50 [1] [nM] | IC50 [2] [nM] | average scores for the treated group (EAE Rats [3]; 50 mg/kg daily, Day 0 through Day 14) | percentage of animals responding (total inhibition or reduction of symptoms) (EAE Rats [3]; 50 mg/kg daily, Day 0 through Day 14, N=5) [%] | Effect on EAE Rats (≥Paresis/Total) (EAE Rats [3]; CFA + Example 2 (no MBP), 50 mg/kg daily oral from Day 0) | Effect on EAE Rats (≥Paresis/Total) (EAE Rats [3]; CFA + MBP + Example 2, 50 mg/kg daily oral from Day 0, CFA + MBP control 5/5) | Effect on EAE Rats (≥Paresis/Total) (EAE Rats [4]; CFA + MBP + Example 2, 10 mg/kg alternate days) | Effect on EAE Rats (≥Paresis/Total) (EAE Rats [4]; CFA + MBP + Example 2, 50 mg/kg alternate days) | significance (p) of decrease in disease severity (EAE Rats [4]; Day 15, 10 or 50 mg/kg alternate days) | CNS inflammation [5] | cuff formation [5] | leukocyte migration across the blood-brain barrier [5] | statistical significance of inhibition of the inflammatory response [6] | Cmax and AUC(0-4) dose dependence ([7]; 2, 10, 50 mg/kg) | Cmax ([7]; rat, plasma, po, 2-mg/kg dose) [µM] | Cmax ([7]; rat, plasma, po, 10-mg/kg dose) [µM] | Cmax ([7]; rat, plasma, po, 50-mg/kg dose) [µM] | Tmax ([7]; rat, plasma, po, post-treatment, read-out: time of peak plasma concentration) [h] | plasma concentration decline ([7]; through the subsequent 4 hours after peak) | effect on development or clinical expression of EAE [8]
O=C(O)CCC(=NO)c1ccc2oc3ccccc3c2c1 [Example 2, 4-Dibenzofuran-2-yl-4-hydroximino-butyric acid] | 40 | > 100000 | substantially reduced | 100 | 0/5 | 1/5 | 0/4 | 0/4 | ≤ 0.01 | little CNS inflammation | no cuff formation | completely prevented | statistically significant | increase proportionately with dose | 4.62 | 38.8 | 163 | 1 | declined mono-exponentially | –
CNC(=O)[C@H](Cc1c[nH]c2ccccc12)NC(=O)[C@@H](CC(=O)NO)CC(C)C [GM6001] | – | – | – | – | – | – | – | – | – | – | – | – | – | – | – | – | – | – | – | suppressed the development or reversed the clinical expression of experimental allergic encephalomyelitis (EAE) in a dose dependent manner
